Test results reported in patent US7931909B2, “Ocular therapy using alpha-2 adrenergic receptor compounds having enhanced anterior clearance rates” (Allergan, Inc., priority 2005, dated 2011).
Like-named read-outs stand apart in the source and are kept apart here. Marks after values point to notes of the source that are not given here.

Legend:
[1] = cited from earlier work
[2] = molecular target: alpha 2 adrenergic receptor; conditions: read-out: EC50 to activate the alpha 2 adrenergic receptor; isolated assay systems; cited from earlier work
in vivo [3] = conditions: albino, rabbit, vitreous humor, 928 ng
[4] = intravitreal PLA implant, 200 micrograms brimonidine, rabbit eyes
[5] = Pharmacokinetics of brimonidine drug delivery systems administered subconjunctivally; assay type: in vivo, New Zealand White rabbits; conditions: all samples, subconjunctival drug delivery systems, rabbit
Description: Thirty groups of rabbits (2 rabbits per group) were used. The groups were divided into 6 sections of 5 groups. […] In each section, one group underwent ophthalmic observation at 5 days after dosing (DAD) and were euthanized at 8 DAD, one group underwent ophthalmic observation at 5 and 29 DAD and were euthanized at 31 DAD, one group underwent ophthalmic observation at 5, 29, and 54 DAD and were euthanized at 60 DAD, and two groups underwent ophthalmic observation at 5, 29, 54, and 86 DAD and were euthanized at 93 DAD.
Eyes were prepared for surgery by topical application of two drops of 1% tropicamide and two drops of phenylephrine hydrochloride 2.5%. Betadine was applied and washed from the eyes, and 1-2 drops of 0.5% proparacaine hydrochloride were delivered to each eye. […] Rods and wafers were administered using forceps. Conjunctivae were sutured closed and received a ocular lubricant. Subconjunctival injections were performed by elevating the bulbar conjunctiva in the dorsotemporal quadrant using forceps. An injection was made into the subconjunctival space.
In the above, the samples were quantified using LC-MS/MS methods with quantitation limits of 10 ng/mL for aqueous and vitreous humor samples, 0.05 ng/mL for plasma samples, 0.5 ng for iris-ciliary body samples, lens samples, and retina samples.

[6] = test system: organic cation transporter present in the conjunctiva; conditions: cited from earlier work
in vivo [7] = conditions: rabbit, other: intravitreal implant, 200 micrograms

brimonidine tartrate
solubility in water ([1]; in water): 34 mg/mL
solubility in a pH 7.0 phosphate buffer ([1]; pH 7.0 phosphate buffer): 2.4 mg/mL

Brc1c(NC2=NCCN2)ccc2nccnc12 [brimonidine, 5-bromo-6-(2-imidazolidinylideneamino)quinoxaline]
EC50 [2]: ~2 nM
clearance (in vivo [3]): 0.00812 mL/min
half-life (in vivo [3]): 1.45 h
concentration at 0.5 h (in vivo [3]; other: intravitreal injection): 608 ± 116 ng/mL
concentration at 10 h (in vivo [3]; other: intravitreal injection): 9.68 ± 6.48 ng/mL
vitreal clearance rate (as restated in Example 3): 0.487 mL/day
route of elimination from the vitreous (conclusion from intravitreal clearance, rabbit): trans-retinal route
Brimonidine Concentration Iris-ciliary body ([4]; Day 8, mean (N = 2)): 942 ng/g
Brimonidine Concentration Iris-ciliary body, estimated mean value in parentheses ([4]; Day 8, two samples above the limit of quantitation): 3010 ng/g
Brimonidine Concentration Vitreous humor ([4]; Day 31, mean ± SEM): 9.35 ± 6.25^b ng/mL
Brimonidine Concentration Lens ([4]; Day 58, mean ± SEM): 17.9 ± 12.5^b ng/g
Brimonidine Concentration Retina ([4]; Day 58, mean ± SEM): 122 ± 57.3^a ng/g
Brimonidine Concentration Vitreous humor ([4]; Day 58, mean ± SEM): 5.6 ± 3.24^b ng/mL
Brimonidine Concentration Iris-ciliary body ([4]; Day 91, mean ± SEM): 42.9 ± 18.7^c ng/g
Brimonidine Concentration Retina ([4]; Day 91, mean ± SEM): 488 ± 471^b ng/g
Brimonidine Concentration Lens ([4]; Day 136, mean ± SEM): 16.2 ± 12.3^a ng/g
Brimonidine Concentration Lens ([4]; Day 184, mean ± SEM): 1.18 ± 0.71^b ng/g
Brimonidine Concentration Retina ([4]; Day 184, mean ± SEM): 59.8 ± 35.0^b ng/g
Plasma brimonidine concentrations [5]: below the lower limit of quantitation
substrate for the organic cation transporter [6]: substrate
concentration at 31 day (in vivo [7]; iris-ciliary body): 25.9 ± 9.11 ng/g
concentration at 58 day (in vivo [7]; iris-ciliary body): 69.4 ± 55.3 ng/g
concentration at 136 day (in vivo [7]; iris-ciliary body): 107 ± 41.5 ng/g
concentration at 8 day (in vivo [7]; lens): 45.1 ± 13.4 ng/g
concentration at 31 day (in vivo [7]; lens): 17 ± 3.92 ng/g
concentration at 91 day (in vivo [7]; lens): 50.1 ± 14.8 ng/g
concentration at 8 day (in vivo [7]; retina): 3630 ± 2110 ng/g
concentration at 31 day (in vivo [7]; retina): 35.3 ± 15.5 ng/g
concentration at 136 day (in vivo [7]; retina): 22.6 ± 5.9 ng/g
concentration at 8 day (in vivo [7]; vitreous humor): 47.2 ± 13.1 ng/mL
concentration at 91 day (in vivo [7]; vitreous humor): 59.3 ± 43.2 ng/mL
